According to US10670605B2, “Cysteine reactive probes and uses thereof” (The Scripps Research Institute, priority 2015, dated 2020):

Assays:
Experiment in all cases: Competitive isoTOP-ABPP in situ (fragment-treated cells)
Type in all cases: cell-based
[1] = target: T1, cysteines in MDA-MB-231 and Ramos cells (Homo sapiens, UniProt Q9NXV6)
T1 sequence (Q9NXV6 1-580): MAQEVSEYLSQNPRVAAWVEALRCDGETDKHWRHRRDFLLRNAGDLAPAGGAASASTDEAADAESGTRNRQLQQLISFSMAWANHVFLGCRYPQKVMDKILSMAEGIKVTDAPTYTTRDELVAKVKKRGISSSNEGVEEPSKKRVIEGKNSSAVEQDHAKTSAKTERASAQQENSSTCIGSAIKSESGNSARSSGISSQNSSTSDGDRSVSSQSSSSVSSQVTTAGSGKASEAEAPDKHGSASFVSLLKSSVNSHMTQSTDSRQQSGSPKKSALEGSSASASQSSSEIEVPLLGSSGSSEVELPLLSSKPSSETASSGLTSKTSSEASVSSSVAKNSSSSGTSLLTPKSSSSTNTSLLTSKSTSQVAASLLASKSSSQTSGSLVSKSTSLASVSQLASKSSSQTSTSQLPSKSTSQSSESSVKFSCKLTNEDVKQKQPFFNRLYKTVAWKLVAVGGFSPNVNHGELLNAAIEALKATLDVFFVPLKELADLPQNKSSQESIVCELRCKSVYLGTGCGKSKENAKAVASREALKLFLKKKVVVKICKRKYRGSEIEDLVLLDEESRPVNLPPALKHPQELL

[2] = target: T2, cysteines in MDA-MB-231 and Ramos cells (Homo sapiens, UniProt Q9NP73)
T2 sequence (Q9NP73 1-1137): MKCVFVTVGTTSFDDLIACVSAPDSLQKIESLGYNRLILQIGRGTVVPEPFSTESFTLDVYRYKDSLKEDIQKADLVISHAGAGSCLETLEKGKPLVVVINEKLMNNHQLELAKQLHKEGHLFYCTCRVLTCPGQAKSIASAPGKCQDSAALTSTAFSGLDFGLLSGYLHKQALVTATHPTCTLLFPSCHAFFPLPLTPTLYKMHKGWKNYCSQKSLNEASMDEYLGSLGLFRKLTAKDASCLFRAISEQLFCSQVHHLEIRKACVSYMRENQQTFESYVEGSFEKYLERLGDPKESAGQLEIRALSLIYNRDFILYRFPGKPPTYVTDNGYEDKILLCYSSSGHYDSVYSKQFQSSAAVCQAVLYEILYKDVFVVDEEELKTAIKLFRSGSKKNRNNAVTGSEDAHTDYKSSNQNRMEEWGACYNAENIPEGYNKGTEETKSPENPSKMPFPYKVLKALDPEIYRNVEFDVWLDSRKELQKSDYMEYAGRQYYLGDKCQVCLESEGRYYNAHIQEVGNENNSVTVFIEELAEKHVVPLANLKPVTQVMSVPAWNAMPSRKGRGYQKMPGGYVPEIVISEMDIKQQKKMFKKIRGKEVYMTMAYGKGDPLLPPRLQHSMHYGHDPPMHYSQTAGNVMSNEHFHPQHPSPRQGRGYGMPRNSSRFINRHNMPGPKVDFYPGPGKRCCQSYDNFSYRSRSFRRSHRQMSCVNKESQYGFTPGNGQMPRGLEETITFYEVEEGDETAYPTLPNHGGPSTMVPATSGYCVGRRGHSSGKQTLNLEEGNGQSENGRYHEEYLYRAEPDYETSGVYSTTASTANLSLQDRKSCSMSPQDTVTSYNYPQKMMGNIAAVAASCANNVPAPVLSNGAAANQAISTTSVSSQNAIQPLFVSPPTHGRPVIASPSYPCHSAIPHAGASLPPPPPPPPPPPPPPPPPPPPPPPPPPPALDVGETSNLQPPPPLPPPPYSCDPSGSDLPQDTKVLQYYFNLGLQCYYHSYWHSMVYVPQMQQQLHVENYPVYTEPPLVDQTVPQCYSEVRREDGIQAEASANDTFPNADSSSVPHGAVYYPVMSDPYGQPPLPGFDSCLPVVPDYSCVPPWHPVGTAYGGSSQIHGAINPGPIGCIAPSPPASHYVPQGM

[3] = target: cysteines in MDA-MB-231 and Ramos cells (Homo sapiens, UniProt Q14790)
cysteines in MDA-MB-231 and Ramos cells (Homo sapiens, UniProt Q14790), sequence (Q14790 217-479): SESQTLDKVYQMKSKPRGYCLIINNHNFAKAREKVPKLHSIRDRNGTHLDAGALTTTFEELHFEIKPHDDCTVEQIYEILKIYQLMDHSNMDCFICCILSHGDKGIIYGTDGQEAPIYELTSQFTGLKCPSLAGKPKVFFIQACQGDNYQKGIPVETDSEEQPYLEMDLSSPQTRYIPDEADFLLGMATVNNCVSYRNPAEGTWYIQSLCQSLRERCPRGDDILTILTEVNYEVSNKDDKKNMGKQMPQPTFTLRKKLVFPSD

[4] = target: T3, cysteines in MDA-MB-231 and Ramos cells (Homo sapiens, UniProt Q86X76)
T3 sequence (Q86X76 14-327): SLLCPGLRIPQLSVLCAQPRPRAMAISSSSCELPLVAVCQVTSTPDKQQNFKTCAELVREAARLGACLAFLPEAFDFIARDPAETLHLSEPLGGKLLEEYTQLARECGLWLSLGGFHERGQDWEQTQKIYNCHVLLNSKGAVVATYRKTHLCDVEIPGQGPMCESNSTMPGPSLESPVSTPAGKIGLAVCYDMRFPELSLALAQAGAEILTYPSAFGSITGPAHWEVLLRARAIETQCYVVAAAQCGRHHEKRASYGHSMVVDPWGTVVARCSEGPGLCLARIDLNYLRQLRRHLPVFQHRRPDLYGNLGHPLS

[5] = target: T4, cysteines in MDA-MB-231 and Ramos cells (Homo sapiens, UniProt O14733); settings: 200 μM, insitu
T4 sequence (O14733 1-419): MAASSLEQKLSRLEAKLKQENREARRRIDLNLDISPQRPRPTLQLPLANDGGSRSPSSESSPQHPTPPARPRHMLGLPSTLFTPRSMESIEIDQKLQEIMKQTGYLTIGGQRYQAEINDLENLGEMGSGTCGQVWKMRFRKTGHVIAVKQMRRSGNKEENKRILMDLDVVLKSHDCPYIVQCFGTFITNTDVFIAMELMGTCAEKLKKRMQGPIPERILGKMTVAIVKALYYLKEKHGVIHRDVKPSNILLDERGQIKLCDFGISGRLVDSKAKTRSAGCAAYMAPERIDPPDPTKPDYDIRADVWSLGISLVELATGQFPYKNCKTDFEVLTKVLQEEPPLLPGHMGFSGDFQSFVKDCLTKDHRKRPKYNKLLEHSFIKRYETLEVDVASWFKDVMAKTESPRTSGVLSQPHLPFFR

[6] = target: cysteines in MDA-MB-231 and Ramos cells (Homo sapiens, UniProt Q14980); settings: 200 μM, insitu, 231
cysteines in MDA-MB-231 and Ramos cells (Homo sapiens, UniProt Q14980), sequence (Q14980 whole entry): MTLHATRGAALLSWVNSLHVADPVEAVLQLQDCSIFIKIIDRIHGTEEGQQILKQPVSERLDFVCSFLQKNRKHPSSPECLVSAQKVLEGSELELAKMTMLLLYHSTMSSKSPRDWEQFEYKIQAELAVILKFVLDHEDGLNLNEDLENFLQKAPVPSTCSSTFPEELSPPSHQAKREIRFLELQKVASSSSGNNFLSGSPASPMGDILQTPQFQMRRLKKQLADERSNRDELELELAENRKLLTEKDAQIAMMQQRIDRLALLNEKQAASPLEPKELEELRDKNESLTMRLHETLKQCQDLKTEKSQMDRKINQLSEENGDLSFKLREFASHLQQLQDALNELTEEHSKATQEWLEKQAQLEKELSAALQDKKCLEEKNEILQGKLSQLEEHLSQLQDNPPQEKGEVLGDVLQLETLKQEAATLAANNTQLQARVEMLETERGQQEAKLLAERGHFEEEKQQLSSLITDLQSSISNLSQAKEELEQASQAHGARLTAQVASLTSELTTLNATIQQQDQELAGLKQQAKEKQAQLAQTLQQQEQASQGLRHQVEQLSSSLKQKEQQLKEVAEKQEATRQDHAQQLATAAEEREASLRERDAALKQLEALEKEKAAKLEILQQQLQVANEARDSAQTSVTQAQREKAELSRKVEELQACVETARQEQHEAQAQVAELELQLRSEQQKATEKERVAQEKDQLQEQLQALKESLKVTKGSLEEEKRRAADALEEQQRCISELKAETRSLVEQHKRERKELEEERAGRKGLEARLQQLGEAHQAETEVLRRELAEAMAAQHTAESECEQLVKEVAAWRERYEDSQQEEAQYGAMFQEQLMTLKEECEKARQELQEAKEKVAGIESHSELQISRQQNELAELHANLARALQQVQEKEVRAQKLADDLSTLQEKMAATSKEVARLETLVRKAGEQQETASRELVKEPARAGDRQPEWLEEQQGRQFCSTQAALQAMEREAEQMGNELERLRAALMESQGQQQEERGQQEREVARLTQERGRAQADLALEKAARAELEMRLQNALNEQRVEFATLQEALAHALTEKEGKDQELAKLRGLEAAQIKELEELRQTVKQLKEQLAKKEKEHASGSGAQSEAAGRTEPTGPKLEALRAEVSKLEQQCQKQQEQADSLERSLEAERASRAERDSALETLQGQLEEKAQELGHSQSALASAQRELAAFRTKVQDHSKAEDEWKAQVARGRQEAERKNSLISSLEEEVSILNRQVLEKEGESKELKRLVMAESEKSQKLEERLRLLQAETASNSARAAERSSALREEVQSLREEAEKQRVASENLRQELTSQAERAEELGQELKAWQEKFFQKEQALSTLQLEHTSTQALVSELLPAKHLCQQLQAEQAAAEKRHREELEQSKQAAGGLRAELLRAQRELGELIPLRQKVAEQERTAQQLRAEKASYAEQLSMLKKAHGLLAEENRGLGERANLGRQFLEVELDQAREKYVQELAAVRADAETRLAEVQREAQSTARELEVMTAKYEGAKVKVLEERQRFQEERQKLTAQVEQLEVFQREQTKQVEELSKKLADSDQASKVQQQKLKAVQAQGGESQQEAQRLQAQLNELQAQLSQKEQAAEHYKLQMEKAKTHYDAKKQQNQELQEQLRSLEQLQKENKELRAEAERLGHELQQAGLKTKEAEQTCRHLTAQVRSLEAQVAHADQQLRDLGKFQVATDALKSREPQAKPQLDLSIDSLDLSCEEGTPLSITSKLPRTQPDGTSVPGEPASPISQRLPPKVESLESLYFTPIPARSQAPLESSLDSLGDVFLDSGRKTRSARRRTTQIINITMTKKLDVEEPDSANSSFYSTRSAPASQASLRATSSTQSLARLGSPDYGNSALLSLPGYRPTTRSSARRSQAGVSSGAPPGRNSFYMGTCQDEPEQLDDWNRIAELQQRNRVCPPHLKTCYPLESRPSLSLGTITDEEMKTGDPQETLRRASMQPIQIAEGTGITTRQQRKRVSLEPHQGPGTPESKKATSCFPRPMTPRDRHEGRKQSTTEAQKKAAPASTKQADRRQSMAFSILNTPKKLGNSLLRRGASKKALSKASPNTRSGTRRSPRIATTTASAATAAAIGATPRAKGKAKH

`COc1ccc2c(c1)CCCN2C(=O)CCl` [compound 2] was tested, and the “isoTOP-ABPP reactivity Q9NXV6_C516 CDKN2AEP” value ([1]; 200 μM, insitu, 231) was 20.0, the “isoTOP-ABPP reactivity Q9NP73_C86 ALG13” value ([2]; 200 μM, insitu, 231) was 20.0 and the “isoTOP-ABPP reactivity Q14790_C360 CASP8” value ([3]; 200 μM, insitu, 231) was 20.0.

With `COc1ccc(C2CC(c3cccs3)=NN2C(=O)CCl)cc1` (centres unmarked) [compound 4] the “isoTOP-ABPP reactivity Q9NP73_C86 ALG13” value ([2]; 100 μM in situ 231) was 20.0, the “isoTOP-ABPP reactivity Q14790_C360 CASP8” value ([3]; 100 μM in situ 231) was 20.0 and the “isoTOP-ABPP reactivity Q86X76_C203 NIT1” value ([4]; 100 μM in situ 231) was 0.7.

`O=C(CCl)N1CCC(Cc2ccccc2)CC1` [compound 9] was tested, and the “isoTOP-ABPP reactivity Q9NXV6_C516 CDKN2AEP” value ([1]; 200 μM, insitu, 231) was 6.6.

In the case of `O=C(CCl)N1CCN(S(=O)(=O)c2ccccc2F)CC1` [compound 10], the “isoTOP-ABPP ratio Q9NXV6_C516” value ([1]; 200 μM, insitu, 231) is reported as 7.7, the “isoTOP-ABPP ratio Q14790_C360” value ([3]; 200 μM, insitu, ramos) is reported as 5.8 and the “isoTOP-ABPP ratio, cysteine O14733_C131” value [5]; 231 is reported as 1.8.

With `Cn1cc(S(=O)(=O)N2CCOCC2)cc1C(=O)NC(=O)CCl` [compound 11] the “isoTOP-ABPP ratio Q9NXV6_C516” value ([1]; 100 μM in situ 231) was 1.0, the “isoTOP-ABPP ratio Q9NP73_C86” value ([2]; 100 μM in situ 231) was 0.7 and the “isoTOP-ABPP ratio, cysteine Q86X76_C203” value ([4]; 100 μM in situ 231) was 0.8.

`O=C(CCl)NC(=O)NC12CC3CC(CC(C3)C1)C2` [compound 12] was tested, and the “isoTOP-ABPP ratio Q9NXV6_C516” value ([1]; 200 μM, insitu, 231) was 3.3, the “isoTOP-ABPP ratio, cysteine Q14980_C961” value [6] was 20.0 and the “isoTOP-ABPP ratio, cysteine O14733_C131” value [5]; 231 was 1.7. The “isoTOP-ABPP ratio, cysteine Q86X76_C203” value ([4]; 200 μM, insitu, 231) was 3.9.

For `O=C(CCl)NCCc1c[nH]c2ccccc12` [compound 13], the “isoTOP-ABPP ratio Q9NXV6_C516” value ([1]; 200 μM, insitu, 231) was 2.4, the “isoTOP-ABPP ratio Q9NXV6_C516” value ([1]; 200 μM, insitu, ramos) was 1.6 and the “isoTOP-ABPP ratio, cysteine Q14980_C961” value [6] was 2.2. The “isoTOP-ABPP ratio Q9NP73_C86” value ([2]; 200 μM, insitu, 231) was 0.9, the “isoTOP-ABPP ratio Q9NP73_C86” value ([2]; 200 μM, insitu, ramos) was 1.4 and the “isoTOP-ABPP ratio Q14790_C360” value ([3]; 200 μM, insitu, 231) was 1.2. The “isoTOP-ABPP ratio, cysteine O14733_C131” value ([5]; ramos) was 1.6.

In the case of `O=C(CCl)NC12CC3CC(CC(C3)C1)C2` [compound 21], the “isoTOP-ABPP ratio Q9NXV6_C516” value ([1]; 200 μM, insitu, 231) is reported as 0.8, the “isoTOP-ABPP ratio, cysteine Q14980_C961” value [6] is reported as 3.7 and the “isoTOP-ABPP ratio Q14790_C360” value ([3]; 200 μM, insitu, 231) is reported as 0.9. The “isoTOP-ABPP ratio, cysteine O14733_C131” value [5]; 231 was 0.7 and the “isoTOP-ABPP ratio, cysteine Q86X76_C203” value ([4]; 200 μM, insitu, 231) was 0.8.

For `CC(C)CCOCCNC(=O)CCl` [compound 27], the “isoTOP-ABPP ratio Q9NXV6_C516” value ([1]; 200 μM, insitu, 231) was 1.4, the “isoTOP-ABPP ratio Q14980_C961” value [6] was 2.4 and the “isoTOP-ABPP ratio Q9NP73_C86” value ([2]; 200 μM, insitu, 231) was 0.4. The “isoTOP-ABPP ratio Q14790_C360” value ([3]; 200 μM, insitu, 231) was 0.4.

In the case of `O=C(CCl)N1CCN(CC(=O)N2CCOCC2)CC1` [compound 29], the “isoTOP-ABPP ratio Q9NXV6_C516” value ([1]; 200 μM, insitu, ramos) is reported as 1.1, the “isoTOP-ABPP ratio Q9NP73_C86” value ([2]; 200 μM, insitu, ramos) is reported as 2.0 and the “isoTOP-ABPP ratio Q14790_C360” value ([3]; 200 μM, insitu, ramos) is reported as 1.6. For the same compound, the “isoTOP-ABPP ratio O14733_C131” value ([5]; ramos) was 1.0.

For `C=CC(=O)N(Cc1cccnc1)c1cc(C(F)(F)F)cc(C(F)(F)F)c1` [compound 31], the “isoTOP-ABPP ratio Q14980_C961” value [6] was 1.1 and the “isoTOP-ABPP ratio Q14790_C360” value ([3]; 200 μM, insitu, 231) was 0.5.

With `C=CC(=O)Nc1cc(F)c(N2CCN(C(=O)OC(C)(C)C)CC2)c(F)c1` [compound 38] the “isoTOP-ABPP ratio Q9NXV6_C516” value ([1]; 200 μM, insitu, 231) was 1.8, the “isoTOP-ABPP ratio Q14980_C961” value [6] was 2.6 and the “isoTOP-ABPP ratio Q9NP73_C86” value ([2]; 200 μM, insitu, 231) was 1.3. For the same compound, the “isoTOP-ABPP ratio Q14790_C360” value ([3]; 200 μM, insitu, 231) was 1.0 and the “isoTOP-ABPP ratio O14733_C131” value [5]; 231 was 20.0.

For `Cc1ccc(C=C(C#N)C(=O)NCCN2CCOCC2)cc1` [compound 41], the “isoTOP-ABPP ratio Q9NXV6_C516” value ([1]; 200 μM, insitu, 231) was 0.9, the “isoTOP-ABPP ratio Q9NP73_C86” value ([2]; 200 μM, insitu, 231) was 0.5 and the “isoTOP-ABPP ratio Q14790_C360” value ([3]; 200 μM, insitu, 231) was 0.5. For the same compound, the “isoTOP-ABPP ratio O14733_C131” value [5]; 231 was 0.8 and the “isoTOP-ABPP ratio Q86X76_C203” value ([4]; 200 μM, insitu, 231) was 1.3.

In the case of `CC1CCc2ccccc2N1C(=O)CCl` (centres unmarked) [compound 45], the “isoTOP-ABPP ratio Q9NP73_C86” value ([2]; 200 μM, insitu, 231) is reported as 20.0, the “isoTOP-ABPP ratio Q14790_C360” value ([3]; 200 μM, insitu, 231) is reported as 20.0 and the “isoTOP-ABPP ratio Q86X76_C203” value ([4]; 200 μM, insitu, 231) is reported as 20.0.

For `O=C(CCl)Nc1cccc2ncccc12` [compound 51], the “isoTOP-ABPP ratio Q9NP73_C86” value ([2]; 200 μM, insitu, 231) was 1.3.
